{"source": "patent US20140039018A1", "about": "(priority 2011, published 2014)", "key": {"[1]": {"test_system": "Fusarium graminearum Fg15 strain", "assay": "microbe, parasite or virus in culture", "type": "cell-based", "details": "FG15STRAIN, read-out: MIC value (minimum inhibition concentration)"}, "[2]": {"test_system": "Fusarium graminearum H-3 strain", "type": "in vivo, barley", "details": "18% wettable powder, 2000-fold dilution, 1500 L/ha, once in browning stage"}, "[3]": {"test_system": "Fusarium graminearum H-3 strain", "type": "in vivo, wheat"}, "[4]": {"test_system": "Fusarium graminearum Fg15 strain", "type": "cell-based", "details": "25° C., 1 week"}}, "note": "Like-named read-outs stand apart in the source and are kept apart here.", "data": [{"compound": "CC1(C)CCC(Cc2ccc(Cl)cc2)C1(O)Cn1cncn1", "note": "(stereo not shown) [metconazole]", "values": [{"measurement": "MIC", "setting": "[1]", "result": 1.56, "unit": "mg/L"}, {"measurement": "DON accumulation level in barley grain at the time of cropping", "setting": "[2]", "result": 704, "unit": "ppb"}, {"measurement": "DON accumulation level in barley grain after storage for a half year", "setting": "[2]; room temperature storage for a half year after cropping", "result": 407, "unit": "ppb"}, {"measurement": "mycotoxin (DON) in wheat grains versus grain cropped without application", "setting": "[3]; 18% wettable powder, 2000-fold dilution, 1500 L/ha, once in yellowing stage or each once in flowering and yellowing stage, 2 weeks after cropping, FIG. 2", "result": "significantly smaller amount of the toxin"}, {"measurement": "accumulation of the toxin in wheat grains after cropping", "setting": "[3]; application in the pre-cropping yellowing stage", "result": "inhibited"}, {"measurement": "toxin (DON) amount per cell weight versus medium containing no metconazole", "setting": "[4]; PDA medium containing metconazole at 0.1 ppm", "result": "significantly smaller"}, {"measurement": "toxin (DON) amount per cell weight versus medium containing no metconazole", "setting": "[4]; PDA medium containing metconazole at 0.2 ppm", "result": "significantly smaller"}]}]}
